Experimental data taken from PubChem BioAssay (NCI).
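1) Cells in 96-well plates. 2) Compound, 48 h, 5 concentrations. 3) Linear interpolation between surrounding doses. 4) Unreached endpoint = highest concentration. Definition used: TGI = concentration required for complete inhibition of growth.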

Legend:
Test in all cases: NCI-60 cell line screen, 48 h
786-0 renal = system: 786-0 renal
CAKI-1 renal = system: CAKI-1 renal
NCI-H522 lung = system: NCI-H522 lung
OVCAR-4 ovarian = system: OVCAR-4 ovarian
NCI/ADR-RES ovarian = system: NCI/ADR-RES ovarian
BT-549 breast = system: BT-549 breast
NCI-H226 lung = system: NCI-H226 lung
CCRF-CEM leukemia = system: CCRF-CEM leukemia
UACC-62 melanoma = system: UACC-62 melanoma
A549 NSCLC = system: A549 NSCLC
ACHN renal = system: ACHN renal
SNB-75 CNS = system: SNB-75 CNS
NCI-H460 lung = system: NCI-H460 lung
SK-MEL-2 melanoma = system: SK-MEL-2 melanoma
KM12 colon = system: KM12 colon
MDA-MB-231 breast = system: MDA-MB-231 breast

| Structure (SMILES) | TGI (786-0 renal) [µM] | TGI (CAKI-1 renal) [µM] | TGI (NCI-H522 lung) [µM] | TGI (OVCAR-4 ovarian) [µM] | TGI (NCI/ADR-RES ovarian) [µM] | TGI (BT-549 breast) [µM] | TGI (NCI-H226 lung) [µM] | TGI (CCRF-CEM leukemia) [µM] | TGI (UACC-62 melanoma) [µM] | TGI (A549 NSCLC) [µM] | TGI (ACHN renal) [µM] | TGI (SNB-75 CNS) [µM] | TGI (NCI-H460 lung) [µM] | TGI (SK-MEL-2 melanoma) [µM] | TGI (KM12 colon) [µM] | TGI (MDA-MB-231 breast) [µM] |
| --- | --- | --- | --- | --- | --- | --- | --- | --- | --- | --- | --- | --- | --- | --- | --- | --- |
| CC(=O)C(CN1CCCCC1)C(c1ccccc1)c1c(O)c2ccccc2oc1=O (stereo not given) | > 100 | > 100 | > 100 | > 100 | > 100 | > 100 | > 100 | > 100 | > 100 | > 100 | > 100 | > 100 | > 100 | > 100 | > 100 | > 100 |
| Cc1cc2c(c(C(=O)NCCC(=O)O)c1)Oc1c(cc(C)cc1C(=O)NCCC(=O)O)S2 | > 100 | > 100 | > 100 | > 100 | > 100 | > 100 | > 100 | > 100 | > 100 | > 100 | > 100 | > 100 |  | > 100 | > 100 | > 100 |
| C[C@]12OC[C@H](c3ccccc3)N1C(=O)C1[C@H]2CC12SCCS2 (stereo not given in full) | > 100 | > 100 | > 100 | > 100 | > 100 | > 100 | > 100 | > 100 | > 100 | > 100 | > 100 | > 100 | > 100 | > 100 | > 100 | > 100 |
| CC(C)(C)OC(=O)NC(C)(C)C(=O)NCCC(=O)O | > 100 | > 100 | > 100 | > 100 | > 100 | > 100 | > 100 | > 100 | > 100 | > 100 | > 100 | > 100 | > 100 | > 100 | > 100 | > 100 |
| CCOC(=O)CCC(NC(=O)c1ccc(OCc2nc3cc(C(F)(F)F)ccc3nc2-c2ccccc2)cc1)C(=O)OCC (stereo not given) | > 100 | > 100 | > 100 | 38.4 | > 100 | > 100 | > 100 | > 100 | > 100 | > 100 | > 100 | 52.1 | > 100 | 54.1 | > 100 | > 100 |
| CCOC(=O)c1sc2nc(SC)nc3c2c1N=CN3c1ccc(Br)cc1 | > 100 | > 100 | > 100 | > 100 | > 100 | > 100 | > 100 | > 100 | > 100 | > 100 | > 100 | > 100 | > 100 | > 100 | > 100 | > 100 |
| O=c1oc2ccccc2c(O)c1C(c1cc(OCc2ccccc2)cc(OCc2ccccc2)c1)c1c(O)c2ccccc2oc1=O | 31.7 | 22.1 | 37.9 | 68.4 | 83.9 | 20.9 | > 45.3 | > 22.5 | 15.7 | > 56.4 | 7.99 | 17 | 11 | 27.3 | 14.7 | 34.5 |
| N#CC1=C(N)OC2=C(CSc3ccccc32)C1c1ccc(Br)cc1 (stereo not given) | 22.8 | 26.4 |  | 19.3 | 7.75 | 28.4 | 27.9 | 6.83 | 21.8 | 27.2 |  | 21.7 | 26.8 | 23 | 44.6 | 29.3 |
| Nc1nc(Cl)cc(NCC2(CO)CC(CCc3ccccc3)C2)n1 (stereo not given) | > 100 | > 100 | > 100 | > 100 | > 100 | > 100 | > 100 | > 100 | > 100 | > 100 | > 100 | > 90.2 | > 100 | > 100 | > 100 | > 100 |
| Clc1nc(Cl)nc(NC23CC4CC(CC(C4)C2)C3)n1 | 31.2 | 21.7 | 30.9 | 39.2 | 44.5 | 35.6 | 44.2 | 23.1 | 35.1 | 38.5 | > 57.7 | 36.5 | 60.4 | > 41.8 | 32.2 | 36.7 |
| c1cc(-c2cnc(-c3ccc4c(c3)CCCO4)o2)ccn1 | 53 | 41.5 | 23.4 | 42.3 | 41.3 | 29.1 | 31.7 | 29.7 | 31.7 | 51.5 | 37.9 | 25.2 |  | 24.8 |  | 41 |
| Clc1cc(N/N=C(/c2ccccc2)c2ncccn2)ncn1 | 79.3 | 73.4 | 5.51 | 68 | 50.8 | > 100 | > 100 | 73.9 | > 100 | 85.1 | 22.9 | 74.4 | 46.6 | 82.6 | > 100 | 82.1 |
| Cc1ccc(N=Nc2c3c(c(O)c4ccccc24)CCC(C)(C)O3)cc1 | > 100 | > 100 | > 100 | 44.5 | > 100 | 58.7 | > 100 | 39.6 | 28.1 | 31.8 | 62.1 | 36 | 32.8 | 36.7 | 55.7 | > 100 |
| COc1ccc(Nc2c(C#N)c3n(c4ccccc24)c2ccccc2[n+]3C)cc1OC | 8.77 | 4.33 | 16 | 32.5 | 17.6 | 42.6 | 10.4 | > 100 | 12.5 | 14.9 | 7.86 | 9.52 | 6.46 | 14.9 | 41.7 | 8.25 |
| c1sc(NC2=NCCO2)c2c1CCCC2 | > 100 | > 100 | > 100 | > 100 | > 100 | > 100 | > 100 | > 100 | > 100 | > 100 | > 100 | > 100 | > 100 | > 100 | > 100 | > 100 |
